Measurements from US10093695B2, “Sterol derivative, preparation method therefor and use thereof” (Beijing Peking University WBL Biotech Co., Ltd., priority 2012, dated 2018).

Legend:
HMG-CoA reductase = biological target: T1, HMG-CoA reductase (Rattus norvegicus, UniProt P51639); experiment: HMG-CoA reductase inhibitory activity experiment (OD340 decrease, rat liver microsomes); type: biochemical; conditions: for Slope: decreasing speed of OD340 within 5 minutes, 37° C., blank control slope 15.6
T1 construct: take out a male rat liver, after washing the male rat liver with a KESD buffer solution; from tissue; host or cells: male rat liver microsomes
T1 sequence (P51639 1-887): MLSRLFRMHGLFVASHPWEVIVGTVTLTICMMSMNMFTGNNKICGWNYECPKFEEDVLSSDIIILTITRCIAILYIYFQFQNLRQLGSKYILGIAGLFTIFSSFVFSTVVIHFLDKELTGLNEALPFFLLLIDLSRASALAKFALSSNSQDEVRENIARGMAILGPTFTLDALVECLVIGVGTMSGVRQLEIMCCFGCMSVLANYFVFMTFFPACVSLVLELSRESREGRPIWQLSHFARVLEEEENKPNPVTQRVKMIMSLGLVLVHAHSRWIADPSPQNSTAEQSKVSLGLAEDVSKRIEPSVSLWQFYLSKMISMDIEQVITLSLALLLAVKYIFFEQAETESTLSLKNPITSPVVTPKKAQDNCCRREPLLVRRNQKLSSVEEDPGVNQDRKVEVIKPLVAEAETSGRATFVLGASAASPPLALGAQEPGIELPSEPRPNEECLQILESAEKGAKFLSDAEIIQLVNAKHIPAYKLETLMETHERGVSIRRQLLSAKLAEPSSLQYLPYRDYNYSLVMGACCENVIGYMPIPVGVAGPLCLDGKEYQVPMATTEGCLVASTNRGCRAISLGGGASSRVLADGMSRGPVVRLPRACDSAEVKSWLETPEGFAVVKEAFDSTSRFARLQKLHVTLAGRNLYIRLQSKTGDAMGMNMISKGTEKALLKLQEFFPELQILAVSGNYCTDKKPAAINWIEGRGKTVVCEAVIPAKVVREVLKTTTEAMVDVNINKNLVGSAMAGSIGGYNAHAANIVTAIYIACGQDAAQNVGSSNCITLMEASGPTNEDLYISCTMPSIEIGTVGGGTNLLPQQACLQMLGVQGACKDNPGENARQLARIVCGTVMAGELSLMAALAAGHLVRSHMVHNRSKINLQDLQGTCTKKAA
Procedure: Rat liver microsomes (HMG-CoA reductase) that may be commercially available or prepared with reference to the following method: take out a male rat liver, after washing the male rat liver with a KESD buffer solution, perform 1200 g centrifugation for 15 minutes, take the supernatant, after performing 105000 g centrifugation again for 90 minutes twice, collect centrifugation sediments, add 8.3% glycerol to the centrifugation sediments, heating for 1 hour with a 37° C. warm bath, purify coarse rat liver microsomes with saturated ammonium sulfate, and collect 35-50% of the purified part. The obtained purified part may be stored in a refrigerator at −80° C.
Dissolve 5.0 mg of the compound with Structural Formula (II) prepared in the first embodiment, Compound 4 or Compound 5, and 2.0 mg of lovastatin with 1 mL of a 75% ethanol solution, respectively;
the total volume of measurement system is 250 μL and the concentrations of the constituents are: potassium chloride 200 mM, potassium dihydrogen phosphate 160 mM, ethylenediaminetetraacetic acid 4 mM and dithiothreitol 10 mM; the concentrations of two substrates NADPH and HMG-CoA are respectively 200 μM and 50 μM, pH6.8, enzyme 30 μL.
Add an ethanol solution with 5 μL of the compound prepared by the first embodiment or an ethanol solution of Compound 4 or an ethanol solution of Compound 5 to a test group, add 5 μL of a lovastatin ethanol solution to a positive control group; add 5 μL of 75% ethanol to a blank control group; detect dynamic change of OD340 on a Versamax microplate reader at 37° C., and evaluate the HMG-CoA reductase activity level by detecting the decreasing speed (represented by a slope value) of OD340 within 5 minutes to further evaluate the enzyme inhibitory activity level, the result is as shown in Table 1.

[1] = tested on: mouse hepatoma cell line HepG2; experiment: In-vitro anti-hepatoma activity, MTT cell growth inhibition, HepG2; type: cell-based; conditions: mouse hepatoma cell line HepG2, 72 hours
Procedure: (§1) Inoculatecancer cells in the logarithmic phase in each well of a 96-well culture plate (2×10^4 cells/well); add the drugs until the final concentrations of the drugs are 500, 250, 125, 62.5, 31.25, 15.625 and 7.8125 μg/mL, after culturing the cancer cells for 72 hours in a cell incubator with a CO2 concentration of 5%, add 10 μL of MTT to each well, incubate the cancer cells at 37° C. in darkness for 4 hours, remove the culture solution, add 150 μL of Dimethyl Sulfoxide (DMSO) or acidified isopropyl alcohol, after oscillating for 5 minutes, measure the Optical Density (OD) value at a wavelength of 570 nm; repeat the steps above for three times; set a blank control group; the cell lines use the same culture medium, which is a RPMI1640 culture medium containing 10% of FBS and 1% of double-antibody (penicillin and streptomycin).
(§2) 3. Calculation Formula of Cell Viability Cell viability=(experimental group OD value/control group OD value)×100%.
FIG. 10 is curve of inhibitory effect of a compound with Structural Formula (II) prepared in the first embodiment on cell growth of […] hepatoma cell line HepG2. […]

[2] = tested on: human mononuclear lymphoma cells THP1; experiment: In-vitro anti-lymphoma activity, MTT cell growth inhibition, THP1; type: cell-based; conditions: THP-1, human mononuclear lymphoma cells THP1, 72 hours
Procedure: as §1, §2
FIG. 13 is a curve of inhibitory effect of a compound with Structural Formula (II) prepared in the first embodiment on cell growth of human mononuclear lymphoma cells THP1. […]

[3] = tested on: mouse hepatoma cell line H22; experiment: In-vitro anti-hepatoma activity, MTT cell growth inhibition, H22; type: cell-based; conditions: mouse hepatoma cell line H22, 72 hours, read-out: half maximal inhibitory concentration (IC50) value
Procedure: as §1, §2
FIG. 9 is a curve of inhibitory effect of a compound with Structural Formula (II) prepared in the first embodiment on cell growth of mouse hepatoma cell line H22. […]

[4] = tested on: mouse lymphoma cells YAC-1; experiment: In-vitro anti-lymphoma activity, MTT cell growth inhibition, YAC-1; type: cell-based; conditions: mouse lymphoma cells YAC-1, 72 hours
Procedure: as §1, §2
FIG. 12 is a curve of inhibitory effect of a compound with Structural Formula (II) prepared in the first embodiment on cell growth of mouse lymphoma cells YAC-1.

[5] = tested on: mouse sarcoma cell line S180; experiment: In-vitro anti-cancer activity, MTT cell growth inhibition, S180; type: cell-based; conditions: S-180, mouse sarcoma cell line S180, 72 hours
Procedure: as §1, §2
FIG. 11 is a curve of inhibitory effect of a compound with Structural Formula (II) prepared in the first embodiment on cell growth of mouse sarcoma cell line S180.

[6] = tested on: human tissue lymphoma cells U937; experiment: In-vitro anti-lymphoma activity, MTT cell growth inhibition, U937; type: cell-based; conditions: U-937, human tissue lymphoma cells U937, 72 hours
Procedure: as §1, §2

[7] = final concentration in the system 40 μg/mL
[8] = final concentration in the system 100 μg/mL

| Slope (HMG-CoA reductase; [7]) | Inhibitory rate (%) (HMG-CoA reductase; [7]) | SMILES | IC50 [1] [µg/mL] | IC50 [2] [µg/mL] | IC50 [3] [µg/mL] | IC50 [4] [µg/mL] | IC50 [5] [µg/mL] | IC50 [6] [µg/mL] | Slope (HMG-CoA reductase; [8]) | Inhibitory rate (%) (HMG-CoA reductase; [8]) |
| --- | --- | --- | --- | --- | --- | --- | --- | --- | --- | --- |
| 9.0 | 42.3 | CC[C@H](C)C(=O)O[C@H]1C[C@@H](C)C=C2C=C[C@H](C)[C@H](CC[C@@H]3C[C@@H](O)CC(=O)O3)[C@H]21 [Lovastatin, lovastatin, reference compound] |  |  |  |  |  |  |  |  |
|  |  | C[C@@H](C(O)C1OC2C[C@@H]3[C@](C)(CC[C@H]4[C@@]35C=CC3(CC(O)CC[C@]43C)OO5)[C@H]2[C@@]1(C)O)C(C)(C)O (stereo partly shown) [Compound with Structural Formula (II), 5,8-epidioxy-16,22-epoxy-ergosta-6-en-3,20,23,25-tetrol] | ~400 | ~400 | ~200 | ~350 | ~460 | ~320 | 10.7 | 31.4 |
